Source: ChEMBL document CHEMBL1133138, “Substituted 2-aminopyridines as inhibitors of nitric oxide synthases” (Bioorg Med Chem Lett, 2000)

How the values were obtained:
[1] = molecular target: T1, Nitric oxide synthase 3 (Homo sapiens, UniProt P29474)
T1 sequence (P29474 whole entry): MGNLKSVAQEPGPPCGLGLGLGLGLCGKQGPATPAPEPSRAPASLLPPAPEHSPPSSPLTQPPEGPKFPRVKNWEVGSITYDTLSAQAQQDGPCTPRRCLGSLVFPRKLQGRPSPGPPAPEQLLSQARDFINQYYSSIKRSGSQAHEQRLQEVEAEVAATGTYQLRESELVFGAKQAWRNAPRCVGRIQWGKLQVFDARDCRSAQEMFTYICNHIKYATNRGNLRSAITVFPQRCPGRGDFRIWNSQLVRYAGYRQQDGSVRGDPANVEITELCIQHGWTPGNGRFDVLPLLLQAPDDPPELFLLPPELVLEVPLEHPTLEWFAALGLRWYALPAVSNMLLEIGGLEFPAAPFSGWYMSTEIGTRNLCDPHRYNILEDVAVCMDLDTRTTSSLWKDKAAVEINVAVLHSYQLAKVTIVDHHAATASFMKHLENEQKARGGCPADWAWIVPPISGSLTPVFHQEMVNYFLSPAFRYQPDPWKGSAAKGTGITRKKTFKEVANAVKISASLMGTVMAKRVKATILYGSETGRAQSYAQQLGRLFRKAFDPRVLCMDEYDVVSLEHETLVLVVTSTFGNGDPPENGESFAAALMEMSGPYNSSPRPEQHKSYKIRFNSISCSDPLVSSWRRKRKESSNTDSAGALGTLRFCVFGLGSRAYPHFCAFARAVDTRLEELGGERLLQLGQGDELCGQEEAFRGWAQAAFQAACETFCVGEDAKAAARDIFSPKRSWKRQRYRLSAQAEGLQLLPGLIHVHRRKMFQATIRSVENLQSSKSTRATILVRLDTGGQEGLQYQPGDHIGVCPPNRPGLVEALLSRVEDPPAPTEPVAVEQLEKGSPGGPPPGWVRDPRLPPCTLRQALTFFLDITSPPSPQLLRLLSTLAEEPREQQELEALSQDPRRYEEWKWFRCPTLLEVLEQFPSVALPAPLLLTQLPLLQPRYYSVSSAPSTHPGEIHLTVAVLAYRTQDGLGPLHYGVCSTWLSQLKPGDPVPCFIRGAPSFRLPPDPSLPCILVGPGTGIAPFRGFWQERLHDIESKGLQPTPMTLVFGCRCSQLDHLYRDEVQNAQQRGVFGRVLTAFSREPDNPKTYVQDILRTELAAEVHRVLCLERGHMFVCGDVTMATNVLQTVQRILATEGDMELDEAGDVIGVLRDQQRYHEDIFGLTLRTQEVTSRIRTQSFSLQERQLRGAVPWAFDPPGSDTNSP
Description: Inhibitory activity against endothelial nitric oxide synthase (eNOS)

[2] = molecular target: T2, Nitric oxide synthase 1 (Homo sapiens, UniProt P29475)
Description: Inhibitory activity against neuronal nitric oxide synthase

[3] = molecular target: Nitric oxide synthase, inducible (Homo sapiens, UniProt P35228)
Description: Inhibitory activity against inducible nitric oxide synthase (iNOS)

[4] = molecular target: T3, Nitric oxide synthase 3 (Homo sapiens) (UniProt P29474); assay: Inhibitory activity against Endothelial nitric oxide synthase; details: concentration not given here
T3 sequence (whole entry): T1 sequence (P29474 whole entry)

[5] = molecular target: T2, Nitric oxide synthase 1; assay: Inhibitory activity against Neuronal nitric oxide synthase; details: concentration not given here
[6] = test system: Rattus norvegicus; assay: Dose required to increase mean aterial blood pressure (MAP) by 40 mm versus control after intravenous administration in rats; type: functional
[7] = test system: Mus musculus; assay: Compound was evaluated for LPS induced nitric oxide increase in mouse plasma after peroral administration of the compound; type: functional; details: po
[8] = test system: Rattus norvegicus; assay: Dose required to increase mean aterial blood pressure (MAP) by 40 mm versus control after intravenous administration in rat; type: functional

T2 sequence (P29475 whole entry): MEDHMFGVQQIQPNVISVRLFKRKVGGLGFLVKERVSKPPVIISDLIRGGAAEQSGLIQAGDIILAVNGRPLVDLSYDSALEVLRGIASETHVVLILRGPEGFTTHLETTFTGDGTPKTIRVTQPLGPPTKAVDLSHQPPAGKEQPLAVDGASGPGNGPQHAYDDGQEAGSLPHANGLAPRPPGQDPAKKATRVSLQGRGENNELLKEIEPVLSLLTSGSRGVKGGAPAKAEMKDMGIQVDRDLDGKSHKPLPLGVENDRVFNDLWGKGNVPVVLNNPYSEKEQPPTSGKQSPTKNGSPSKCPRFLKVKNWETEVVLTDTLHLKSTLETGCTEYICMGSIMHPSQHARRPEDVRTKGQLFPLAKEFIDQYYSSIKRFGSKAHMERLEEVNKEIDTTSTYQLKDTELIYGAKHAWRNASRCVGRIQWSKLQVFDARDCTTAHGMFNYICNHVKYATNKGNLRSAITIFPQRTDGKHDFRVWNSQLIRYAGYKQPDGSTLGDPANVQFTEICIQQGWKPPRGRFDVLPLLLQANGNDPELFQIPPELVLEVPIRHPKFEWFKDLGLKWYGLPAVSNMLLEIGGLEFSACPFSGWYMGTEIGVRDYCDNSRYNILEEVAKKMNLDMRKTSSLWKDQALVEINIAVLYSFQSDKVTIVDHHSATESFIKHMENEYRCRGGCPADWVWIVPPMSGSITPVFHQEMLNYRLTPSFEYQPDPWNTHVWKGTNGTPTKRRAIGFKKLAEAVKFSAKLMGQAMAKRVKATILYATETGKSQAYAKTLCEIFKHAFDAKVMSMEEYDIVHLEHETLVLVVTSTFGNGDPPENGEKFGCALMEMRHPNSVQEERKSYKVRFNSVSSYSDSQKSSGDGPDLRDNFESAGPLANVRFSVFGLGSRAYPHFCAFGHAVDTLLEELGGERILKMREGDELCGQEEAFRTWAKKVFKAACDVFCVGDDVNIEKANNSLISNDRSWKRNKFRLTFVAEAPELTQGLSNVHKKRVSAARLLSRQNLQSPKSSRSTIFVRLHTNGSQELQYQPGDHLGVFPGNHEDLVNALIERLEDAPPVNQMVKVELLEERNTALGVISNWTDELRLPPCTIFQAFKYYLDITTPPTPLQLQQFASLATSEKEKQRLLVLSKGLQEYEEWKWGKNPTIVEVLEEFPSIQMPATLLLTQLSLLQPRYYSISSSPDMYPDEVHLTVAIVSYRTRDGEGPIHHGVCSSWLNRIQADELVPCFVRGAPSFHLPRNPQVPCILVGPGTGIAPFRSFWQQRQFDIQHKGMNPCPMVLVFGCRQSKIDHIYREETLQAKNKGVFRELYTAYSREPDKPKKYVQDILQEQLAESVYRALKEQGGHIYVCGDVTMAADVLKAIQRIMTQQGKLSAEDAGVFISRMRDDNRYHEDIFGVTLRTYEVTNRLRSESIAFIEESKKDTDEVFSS
Sequence of Nitric oxide synthase, inducible (P35228 whole entry): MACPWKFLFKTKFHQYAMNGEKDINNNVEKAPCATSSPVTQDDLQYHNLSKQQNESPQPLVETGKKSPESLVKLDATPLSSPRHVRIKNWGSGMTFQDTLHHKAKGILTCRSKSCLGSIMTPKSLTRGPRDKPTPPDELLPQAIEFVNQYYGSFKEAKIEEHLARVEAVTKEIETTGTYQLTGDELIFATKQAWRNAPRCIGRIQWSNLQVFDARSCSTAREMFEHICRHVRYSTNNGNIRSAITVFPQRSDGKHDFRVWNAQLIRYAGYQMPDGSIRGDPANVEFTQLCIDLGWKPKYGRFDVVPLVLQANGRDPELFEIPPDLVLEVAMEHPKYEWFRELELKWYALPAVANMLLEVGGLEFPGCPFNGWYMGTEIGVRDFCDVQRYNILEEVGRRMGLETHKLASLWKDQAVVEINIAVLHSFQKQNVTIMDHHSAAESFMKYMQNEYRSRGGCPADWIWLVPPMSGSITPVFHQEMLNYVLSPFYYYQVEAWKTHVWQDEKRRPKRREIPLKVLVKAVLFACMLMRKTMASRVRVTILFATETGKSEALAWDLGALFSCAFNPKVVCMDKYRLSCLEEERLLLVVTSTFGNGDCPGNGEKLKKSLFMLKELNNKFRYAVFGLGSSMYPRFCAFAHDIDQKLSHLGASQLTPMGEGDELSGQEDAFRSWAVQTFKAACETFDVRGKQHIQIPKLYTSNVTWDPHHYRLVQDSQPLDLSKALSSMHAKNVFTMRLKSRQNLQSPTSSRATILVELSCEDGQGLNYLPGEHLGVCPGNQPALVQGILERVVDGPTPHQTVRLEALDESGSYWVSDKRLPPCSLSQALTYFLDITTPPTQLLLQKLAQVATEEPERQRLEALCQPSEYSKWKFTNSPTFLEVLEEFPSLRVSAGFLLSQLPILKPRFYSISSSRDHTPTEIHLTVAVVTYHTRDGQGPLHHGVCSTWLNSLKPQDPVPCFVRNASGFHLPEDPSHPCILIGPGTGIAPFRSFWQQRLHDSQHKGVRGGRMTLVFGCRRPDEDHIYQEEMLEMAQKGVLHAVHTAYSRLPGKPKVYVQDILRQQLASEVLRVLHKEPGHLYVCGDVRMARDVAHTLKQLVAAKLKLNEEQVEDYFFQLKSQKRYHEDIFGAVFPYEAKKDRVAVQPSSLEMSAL

| SMILES | IC50 [1] [nM] | IC50 [2] [nM] | IC50 [3] [nM] | also measured |
| --- | --- | --- | --- | --- |
| Cc1cc(N)nc(CC(C)C)c1 | 150 | 100 | 28 |  |
| CCCc1c(C)ccnc1N |  |  | 34500 |  |
| Cc1ccc(N)nc1 |  |  | 600 |  |
| Nc1cc(Cl)ccn1 |  |  | > 50000 |  |
| CCc1cnc(N)cc1C | 3400 | 610 | 1300 |  |
| Nc1cc2c(cn1)CCCC2 | 16600 | 10600 | 4100 |  |
| CCCc1ccnc(N)c1 |  |  | > 50000 |  |
| Cc1ccnc(N)c1C | 150 |  |  |  |
| Nc1cc2ccccc2cn1 [ISOQUINOLIN-3-AMINE] |  |  | > 50000 |  |
| Cc1cc(N)nc(C(C)C)c1 | 200 | 1200 | 110 |  |
| Cc1cc(N)nc(CCC(C)C)c1 | 1900 | 510 | 76 |  |
| Nc1ccc2c(n1)CCC2 | > 50000 | > 50000 | > 50000 |  |
| Cc1cc(N)nc(CCCc2ccccc2)c1 | 17200 | 3300 | 12700 |  |
| CCCCc1cc(C)cc(N)n1 |  |  | 46 | inhibition [4]: 40%; inhibition [5]: 59% |
| Nc1ccccn1 [2-AMINOPYRIDINE] | 2800 |  | 1900 |  |
| Cc1ccnc(N)c1N |  |  | 59 |  |
| Cc1cc(N)nc2c1CCCC2 | 19800 | 2400 | 4000 |  |
| Cc1ccnc(N)c1 |  |  |  | HD40 [6]: 0.11 mg/kg; ED50 [7]: 25 mg/kg |
| Cc1ccc(N)nc1C | 2800 | 2200 | 7200 |  |
| Nc1nccc2c1CCCC2 | 24000 | 11000 | 29000 |  |
| CC1CCN=C(N)C1 (stereo not drawn) |  |  | 16 | ED50 [7]: 0.15 mg/kg; HD50 [8]: 1.8 mg/kg |
| Cc1cccnc1N |  | 1300 | 940 |  |
| CCc1cc(C)cc(N)n1 | 49 |  | 330 | inhibition [5]: 42% |
| Cc1cnc(N)cc1C | 600 | 340 | 810 |  |
| CCc1c(C)ccnc1N | 3300 |  | 2700 |  |
| N=C(N)NN [PIMAGEDINE] | 500000 | 118000 | 101000 |  |
| Cc1cnc(N)c(C)c1 | 3600 | 2000 | 14600 |  |
| CC(=N)NCCCC[C@H](N)C(=O)O [L-NIL] | 7900 | 18400 | 1400 |  |
| Cc1cc(C)nc(N)c1 | 45 |  | 110 |  |
